The test system of one data set is p60^v-src. Particulars: membrane versus cytosolic fractions; cited from earlier work.
The conditions of data set [1]: compared with myristic acid; cited from earlier work.
For data set [2], the target named is T1, yeast NMT coexpressed with murine PK-A C-subunit in E. coli strain JM101 (Saccharomyces cerevisiae, UniProt P14743, S2A).
T1 construct: metabolic labeling in cells
Put plainly: [3H]Fatty acid labeling of PK-A C-subunit produced in E. coli coexpressing yeast NMT1. Format: cell-based, S. cerevisiae. Particulars: for incorporation of [3H]fatty acid into the C-subunit of PK-A: E. coli JM101 with NMT1 and wild type Cα plasmids after induction, SDS-PAGE and fluorography. How it is done:
[^3 H]Fatty acid labeling of PK-A C-subunit produced in E. coli. Four ml cultures of the double transformants were shaken at 37° C. to an OD600 of 0.5 in LB broth+100 μg/ml ampicillin and 100 μg/ml kanamycin sulfate. Isopropyl-β-D-thiogalactopyranoside (IPTG) was then added to a final concentration of 1 mM to induce NMT production (see Results, below). When the cultures reached OD600 =1.0 (approximately 40 min later), nalidixic acid was added to a final concentration of 50 μg/ml to induce C-subunit production (see Results, below). [^3 H]Myristate (New England Nuclear; 39.3 Ci/mmol, 113 μCi added per ml of culture), [^3 H]palmitate (New England Nuclear; 30 Ci/mmol, 143 μCi/ml), or [^3 H]10-(propoxy)decanoate [Heuckeroth and Gordon, Proc. Natl. Acad. Sci. USA 86, 5262-5266 (1989)] (31.7 Ci/mmol, 800 μCi/ml) was added simultaneously with the nalidixic acid. Cultures were shaken for an additional 20 min at 37° C. and the cells were harvested by centrifugation. Lysates were prepared by boiling E. coli contained in the pellet for 10 min in 40 μL of a solution of 125 mM Tris, pH 8.0, 4% SDS, 20% glycerol, 10% β-mercaptoethanol, and 0.2M dithiothreitol. Cell debris was removed by centrifugation and 15 μl aliquots of the supernatant were subjected to SDS-PAGE [Laemmli, Nature 227, 680-685 (1970)] and subsequent fluorography using EN^3 HANCE (New England Nuclear) autoradiography enhancer. For Western blot analyses, 50 μg of reduced and denatured lysate proteins, prepared from unlabeled E. coli producing Gly^2 -C-subunit or Ala^2 -C-subunit, were separated by SDS-PAGE, electroblotted onto nitrocellulose [Burnette, Anal. Biochem. 112, 195-230 (1981)], and the filters probed with polyclonal, monospecific rabbit antisera raised against purified mouse C-subunit. Antigen-antibody complexes were visualized with ^125 I-protein A [Burnette, supra.].

Substrate in data set [3]: C[C@H](NC(=O)[C@H](C)NC(=O)[C@H](C)NC(=O)[C@H](CC(N)=O)NC(=O)CN)C(=O)N[C@@H](C)C(=O)N[C@@H](CCCNC(=N)N)C(=O)N[C@@H](CCCNC(=N)N)C(N)=O
Put plainly: coupled in vitro assay for NMT activity, Total E. coli NMT. Type of data set: biochemical, S. cerevisiae. Particulars: other: peptide substrate varied, 15 μM myristate. As for the experimental part: (§1) In vitro assay system for NMT activity. To assess the peptide and acyl-CoA substrate specificities of E. coli-derived S. cerevisiae NMT, crude lysates or partially purified enzyme preparations were added to a coupled in vitro assay system [Towler and Glaser, Proc. Natl. Acad. Sci. USA 83, 2812-2816 (1986)]. The first step of this assay involves enzymatic conversion of radiolabeled fatty acids to their CoA thioesters by Pseudomonas acyl-CoA ligase. This ligase is largely nonspecific for fatty acid substrates [Shimizu et al., Anal. Biochem. 107, 193-198 (1980)]. Octapeptide substrates and NMT were then added to produce acylpeptides. Acylpeptides were purified from the reaction mixture by trichloroacetic acid/methanol precipitation and C18 reverse phase HPLC using a linear gradient of acetonitrile in water [Towler and Glaser, Proc. Natl. Acad. Sci. USA 83, 2812-2816 (1986)].
(§2) The peptide Km and Vmax values shown in the above Table I are averages obtained from 4- or 5-point Lineweaver-Burke plots. These plots were produced using data generated in at least three independent in vitro NMT assays. Varying concentrations of peptides were assayed with 15 μM myristate to determine peptide Km and Vmax values. […] Yeast NMT was from a 570 fold purified preparation [Towler et al., Proc. Natl. Acad. Sci. USA 84, 2708-2712 (1987)]. […] ND=not determined.

Substrate in data set [4]: C[C@H](NC(=O)[C@H](C)NC(=O)[C@H](CC(N)=O)NC(=O)CN)C(=O)N[C@@H](CO)C(=O)N[C@@H](C)C(=O)N[C@@H](CCCNC(=N)N)C(=O)N[C@@H](CCCNC(=N)N)C(N)=O
The description is as above. Format: biochemical, S. cerevisiae. Particulars: other: peptide substrate varied, 15 μM myristate. How it is done:
as §1, §2

Substrate in data set [5]: CCCCCCCCCCCCCC(=O)SCCNC(=O)CCNC(=O)[C@H](O)C(C)(C)COP(=O)(O)OP(=O)(O)OC[C@H]1O[C@@H](n2cnc3c(N)ncnc32)[C@H](O)[C@@H]1OP(=O)(O)O
The data set can be described thus: cells, lysate or membranes named. Particulars: other: fatty acyl-CoA substrate varied, 60 μM GNAAAARR

Substrate in data set [6]: CCCCCCCCCCCCCCCC(=O)SCCNC(=O)CCNC(=O)[C@H](O)C(C)(C)COP(=O)(O)OP(=O)(O)OC[C@H]1O[C@@H](n2cnc3c(N)ncnc32)[C@H](O)[C@@H]1OP(=O)(O)O
Put plainly: coupled in vitro assay for NMT activity, 45 kDa E. coli NMT. Type of data set: biochemical, S. cerevisiae. Conditions: other: fatty acyl-CoA substrate varied, 60 μM GNAAAARR
As for the experimental part: as §1
(§3) To obtain a homogenous preparation of the enzyme, E. coli-produced NMT was further purified by Mono S fast protein liquid chromatography (FPLC).
(§4) The peptide Km and Vmax values shown in the above Table I are averages obtained from 4- or 5-point Lineweaver-Burke plots. These plots were produced using data generated in at least three independent in vitro NMT assays. Varying concentrations of peptides were assayed with 15 μM myristate to determine peptide Km and Vmax values. […] Yeast NMT was from a 570 fold purified preparation [Towler et al., Proc. Natl. Acad. Sci. USA 84, 2708-2712 (1987)]. Synthetic peptide substrates are represented by their conventional one letter amino acid code. […] ND=not determined.

Substrate in data set [7]: CCCOCCCCCCCCCC(=O)SCCNC(=O)CCNC(=O)[C@H](O)C(C)(C)COP(=O)(O)OP(=O)(O)OC[C@H]1O[C@@H](n2cnc3c(N)ncnc32)[C@H](O)[C@@H]1OP(=O)(O)O
The data set is described as above. Type of data set: biochemical, S. cerevisiae. Particulars: other: fatty acyl-CoA substrate varied, 60 μM GNAAAARR
As for the experimental part:
as §1, §3, §4

Substrate in data set [8]: C[C@H](NC(=O)[C@H](C)NC(=O)[C@H](CC(N)=O)NC(=O)CN)C(=O)N[C@@H](CO)C(=O)N[C@@H](C)C(=O)N[C@@H](CCCNC(=N)N)C(=O)N[C@@H](CCCNC(=N)N)C(N)=O
The data set is described as above. Type of data set: biochemical, S. cerevisiae. Conditions: other: peptide substrate varied, 15 μM myristate. As for the experimental part: as §1, §3, §4

Regarding `CCCOCCCCCCCCCC(=O)O` [10-(Propoxy)decanoic acid], the “effect on p60v-src distribution when incorporated in vivo” value in the data set with p60^v-src is “significant redistribution of the protein from membrane to cytosolic fractions”. Also, the hydrophobicity result in [1] was “reduced hydrophobicity (comparable to decanoic acid)”.
Regarding `CCCCCCCCCCCCCC(=O)O` [[^3 H]Myristic acid, Myristic acid], the “Pronase E digestion product of the labeled C-subunit” value in data set [2] (C18 reverse-phase HPLC) was “co-migrated with the chemically synthesized [^3 H]myristoylglycine standard”. Further, the “incorporation of [3H]fatty acid into the C-subunit of PK-A” value in data set [2] is “efficiently linked to the Gly^1 residue of the C-subunit”; in data set [2] (listed as [^3 H]myristic acid), “a 40 kDa protein was metabolically labeled”. The “overall efficiency of NMT-catalyzed linkage of the myristoyl moiety to the C-subunit” value in data set [2] (in E. coli, estimated from Western blot, incorporated label and specific activity) is on record as about 100%.

B1: E. coli-derived S. cerevisiae NMT (Total E. coli NMT) (Saccharomyces cerevisiae S288C; S2A) (protein)
chain: MAEEDKAKKLENLLKLLQLNNDDTSKFTQEQKKAMKDHKFWRTQPVKDFDEKVVEEGPIDKPKTPEDISDKPLPLLSSFEWCSIDVDNKKQLEDVFVLLNENYVEDRDAGFRFNYTKEFFNWALKSPGWKKDWHIGVRVKETQKLVAFISAIPVTLGVRGKQVPSVEINFLCVHKQLRSKRLTPVLIKEITRRVNKCDIWHALYTAGIVLPAPVSTCRYTHRPLNWKKLYEVDFTGLPDGHTEEDMIAENALPAKTKTAGLRKLKKEDIDQVFELFKRYQSRFELIQIFTKEEFEHNFIGEESLPLDKQVIFSYVVEQPDGKITDFFSFYSLPFTILNNTKYKDLGIGYLYYYATDADFQFKDRFDPKATKALKTRLCELIYDACILAKNANMDVFNALTSQDNTLFLDDLKFGPGDGFLNFYLFNYRAKPITGGLNPDNSNDIKRRSNVGVVML
notes: intact 53 kDa (codon 2 Ser to Ala from cloning) plus 45 kDa truncated form
As usually defined, the Km is the substrate concentration at which the rate is half of its maximum. B1: the Km in [3] was 65.8 µM; in [4], 0.103 µM.

B2: 45 kDa E. coli NMT (NMT missing the NH2-terminal 39 residues) (Saccharomyces cerevisiae S288C) (protein)
chain: FWRTQPVKDFDEKVVEEGPIDKPKTPEDISDKPLPLLSSFEWCSIDVDNKKQLEDVFVLLNENYVEDRDAGFRFNYTKEFFNWALKSPGWKKDWHIGVRVKETQKLVAFISAIPVTLGVRGKQVPSVEINFLCVHKQLRSKRLTPVLIKEITRRVNKCDIWHALYTAGIVLPAPVSTCRYTHRPLNWKKLYEVDFTGLPDGHTEEDMIAENALPAKTKTAGLRKLKKEDIDQVFELFKRYQSRFELIQIFTKEEFEHNFIGEESLPLDKQVIFSYVVEQPDGKITDFFSFYSLPFTILNNTKYKDLGIGYLYYYATDADFQFKDRFDPKATKALKTRLCELIYDACILAKNANMDVFNALTSQDNTLFLDDLKFGPGDGFLNFYLFNYRAKPITGGLNPDNSNDIKRRSNVGVVML
notes: S2A lies in the removed part
As for B2, the Michaelis-Menten constant (Km) stood at 0.36 µM in data set [5], 0.96 µM in data set [6], 1.2 µM in [7] and 0.38 µM in [8].

The values are drawn from patent publication US5436138A, “Method for protein N-myristoylation” (Washington University, priority 1993, dated 1995).
